Test results: patent US20140079775A1, “AGENTS TO TREAT/PREVENT AMOEBIASIS” (priority 2011, published 2014)
Like-named read-outs stand apart in the source and are kept apart here.

Tested on: E. histolytica mediated cytotoxicity on HT-29 cell layers
Format: cell-based, Entamoeba histolytica
Settings: for protection of the cell layer (in words): physiologically relevant concentrations of individual HMO
Method: FIG. 2 HMO prevent E. histolytica mediated cytotoxicity in in vitro co-culture with enterocytes. Representative images of methylene blue stained HT-29 cell layers as such (A, left) or cocultured with HM-1 trophozoites in the absence (A, middle) or presence (A, right) of 10 mg/ml HMO. Dose response curve with different concentrations of HMO (B). The O.D 660 nm of methyleneblue cell layers was used as a measure for cytotoxicity. The cytoprotective effect of HMO was calculated as the percent ‘cell rescue’ compared to the untreated coculture (0%). Results are means SEM of 4 independent experiments. Cocultures were incubated with different glycans and cytotoxicity was determined as described above (C). […] HMO rescues cell layers when added to existing cocultures (D). HT-29 cells were cocultured with HM-1 and 20 mg/ml HMO was added at the indicated times of coculture. Cocultures were stopped and cytotoxicity was determined after 2 hrs. Control cell layers were cocultured for 2 hrs in the absence of HMO and were considered to have 0% cell rescue.
FIG. 3 Protection of the HT-29 monolayer by individual HMO. Cell rescue in co-culture treated with physiologically relevant concentrations of individual HMO (A). Symbols represent structures of individual HMO. Cell survival in the presence of equimolar concentrations of LNT, LNFP1 and a mixture of LNFP1, LNFP2, and LNFP3. […] Cytotoxicity assay with 10 mM 2′FL before and after fucosidase digestion (C). 2′FL left untreated or incubated with alpha1, 2 fucosidase was used in cytotoxicity assay. As controls, we used enzyme reaction buffer with inactivated fucosidase (control); equimolar concentrations (10 mM) of Lac, Fuc, or Fuc and Lac combined. Data from cytotoxicity assays are presented as % cell rescue compared to untreated cocultures (0%). Error bars are SEM, stars indicate statistical significance compared to control unless indicated by bars.
FIG. 4 GOS reduces cytotoxicity of trophozoites independent of its lactose content. Cell rescue in cocultures treated with increasing concentrations of GOS (triangles) or its corresponding lactose content (circles)(A). Cytotoxicity assay with GOS fractions (B). Higher numbered (eluted later) fractions contain lower molecular weight carbohydrates. The lactose content of fractions 11 and 12 is indicated above the respective bars. HPLC chromatogram of the original GOS preparation (20% lactose) (upper panel) and of the lactose free GOS (<0.5%) (C). Cytotoxicity assay with increasing concentrations of lactose-free GOS (triangles) and Lac-containing GOS (circles)(D).
HMO prevent enterocyte cytotoxicity by E. histolytica in in vitro cocultures. Previous studies have shown reduced Entamoeba attachment and cytotoxicity in the presence of selected carbohydrates (Cano-Mancera and Lopez-Revilla, 1987; Ravdin and Guerrant, 1981; Bracha and Mirelman, 1984). We tested the effect of HMO on Entamoeba induced cytotoxicity in in vitro cocultures with HT-29 cell layers and calculated the % cell rescue (FIG. 2A). […] The cell protective effect of 20 mg/ml HMO is similar to the effect of 10 mM lactose and better than the effect of 10 mM galactose (FIG. 2C). […] Treatment with 20 mg/ml after 90 min of cocultures could still rescue 31±4.7% of the cell layer.

| Compound | prevention of cytotoxicity (in words) (10 mM) | protection of the cell layer (in words) | further results |
| --- | --- | --- | --- |
| O=C[C@H](O)[C@@H](O)[C@@H](O)[C@H](O)CO [galactose] | no significant effect |  |  |
| CC(=O)N[C@H]1[C@H](O[C@H]2[C@@H](O)[C@@H](CO)O[C@@H](O[C@H]3[C@H](O)[C@@H](O)C(O)O[C@@H]3CO)[C@@H]2O)O[C@H](CO)[C@@H](O)[C@@H]1O[C@@H]1O[C@H](CO)[C@H](O)[C@H](O)[C@H]1O (stereo partly drawn) [LNT, Lacto-N-tetraose] |  | significantly protected the cell layer | cell rescue (5 mg/ml): 49.5±9.2%; cell rescue (10 mM): 79±8.3% |
| CC(=O)N[C@H]1[C@H](O[C@H]2[C@@H](O)[C@@H](CO)O[C@@H](O[C@H]3[C@H](O)[C@@H](O)C(O)O[C@@H]3CO)[C@@H]2O)O[C@H](CO)[C@@H](O)[C@@H]1O[C@@H]1O[C@H](CO)[C@H](O)[C@H](O)[C@H]1O[C@@H]1O[C@@H](C)[C@@H](O)[C@@H](O)[C@@H]1O (stereo partly drawn) [LNFP1] |  |  | rescue of enterocytes (in words) (5 mg/ml): no effect; cell rescue (10 mM): 16.9±1.7% |
| C[C@H](O)[C@@H](O)[C@@H](O)[C@H](O)C=O [fucose] | no significant effect |  | prevention of cytotoxicity (in words) (10 mM, listed as Fucose): do not prevent cytotoxicity |
| CC(=O)N[C@H]1[C@H]([C@H](O)[C@H](O)CO)O[C@@](OC[C@H]2O[C@@H](O[C@H]3[C@H](O)[C@@H](O)C(O)O[C@@H]3CO)[C@H](O)[C@@H](O)[C@H]2O)(C(=O)O)C[C@@H]1O (stereo partly drawn) [6′SL, 6-sialyl-lactose] |  | failed to prevent monolayer destruction |  |
| 3-sialyl-lactose [3′SL] |  | failed to prevent monolayer destruction |  |
| OC[C@H]1O[C@@H](O[C@H]2[C@H](O)[C@@H](O)C(O)O[C@@H]2CO)[C@H](O)[C@@H](O)[C@H]1O (stereo partly drawn) [Lactose, lactose] | significantly prevent cytotoxicity |  | effect on cytotoxicity compared with lactose containing GOS (in words) (Lac concentrations present in each GOS sample): significantly lower |
